Ends that are not written are not given here. * marks the point of attachment. Biotin = O=C1N[C@H]2[C@H](CS[C@H]2CCCCC(=O)*)N1
Test system: HEK293T cells
Test: Transfection-independent cytoplasmic entry, T7 RNAP RT-PCR assay
Format: cell-based
Settings: 40 pmol biotin:streptavidin dsDNA-SA-peptide assembly added without transfection reagent to HEK293T cells transiently transfected with T7_pEF/myc/cyto; lysed 18 hours later; FIG. 14 bottom panel
Protocol: To determine if cytoplasmic T7 would be active as a polymerase in mammalian cells, we developed a transient transfection assay in HEK293T cells (FIG. 5). Cells were seeded in 24-well dishes at 350,000 cells/well and then incubated overnight in Eagle's Minimum Essential Medium supplemented with 10% fetal bovine serum (FBS). A DNA template containing the T7 promoter upstream of the coding region of a VH antibody domain was prepared by PCR as follows. VH DNA from a naïve human VH library was PCR amplified (Strategene 600312) with a 5′ oligo coding for in vitro transcription and translation signal T7TMV (5′-TAATACG […]-3′; SEQ ID NO: 3)) and a 3′ oligo annealing to the C-terminal VH DNA Cmu and SA linker region, Y15 (5′-[…]-3′; SEQ ID NO: 4). The PCR product was gel purified. […] This specific RNA is then detected and amplified by RT-PCR. […]
For the cytoplasmic entry selections to be successful, biotin-streptavidin assemblies of oligonucleotide and encoded peptide or protein must be competent as T7 polymerase templates. To test whether a complex of biotinylated peptide or VH binder assembled with streptavidin can be transfected into cells, transcribed by T7 RNAP, and detected by RT-PCR, the above VH DNA was modified to carry both SP6 and T7 promoter sequences at the 5′ end (5′-[…]-3′; SEQ ID NO: 9) and Cmu-flag-SA-polyA sequence at the 3′ end (FIG. 12). […]

Row | Substance | cellular uptake / RT-PCR activity as a result of cytoplasmic T7 polymerase activity
1 | Biotin-KKWKMRRNQFWVKVQRG [ANT] | cellular uptake of the peptide assemblies occurs
2 | Biotin-YGRKKRRQRRR [TAT] | cellular uptake of the peptide assemblies occurs
